Where two headings read alike, the source gives them in different places.
Tests used:
[1] = Cytotoxicity (CC50) in RAW cells; settings: mouse
mouse norovirus = test: Mouse Norovirus (MNV) assay in RAW cells
human norovirus = test: Efficacy of Compound 1 Against Human Norovirus (viral titer); assay type: cell-based; settings: cells pretreated with 25 μM compound for two hours; duplicate (FIGS. 4-6)
Method: The efficacy of compound 1 for inhibiting norovirus was compared to DMSO (as a control), compound 2, and 2′-C-methylcytidine triphosphate (2′CmeC TP). Cells were pretreated with 25 μM of experimental compound for two hours. Virus inoculum was added for two hours, and unbound virus washed off and fresh media and fresh experimental compound was added.

RAW cells = test: Conversion of Compound 1 to Triphosphate in RAW Cells; settings: for (Compound 1-TP)/(Compound 1) (ng): ratio by ng; for (Compound 1-TP)/(Compound 1) (pmol): ratio by pmol
[2] = RAW cells incubated with 0.5 μM Compound 1 for 48 hours
[3] = RAW cells incubated with 1 μM Compound 1 for 48 hours
[4] = RAW cells incubated with 5 μM Compound 1 for 48 hours
[5] = RAW cells incubated with 10 μM Compound 1 for 48 hours
[6] = murine norovirus, Table 8, N/A = assayed but no EC50 value could be measured

C[C@@]1(O)[C@H](O)[C@@H](CO)O[C@H]1n1ccc(N)nc1=O [2′-C-Methyl Cytidine, reference compound]
CC50 [1]: 34.3 µM
EC50 (mouse norovirus; Norovirus, in Mus musculus, read-out: MNV Mean EC50, RAW cells): 3.2 µM

C[C@@]1(O)[C@H](O)[C@@H](COP(=O)(O)OP(=O)(O)OP(=O)(O)O)O[C@H]1n1ccc(N)nc1=O [2′CmeC TP, 2′-C-methylcytidine triphosphate, reference compound]
viral titer (human norovirus): increased almost two orders of magnitude

Cc1nc(N)c2c(C(N)=O)cn([C@@H]3O[C@H](COP(=O)(O)OP(=O)(O)OP(=O)(O)O)[C@@H](O)[C@H]3O)c2n1 [Compound 1-TP]
Concentration (ng/1 × 10^6 cells) (RAW cells; [2]): 3.74 ng/1 × 10^6 cells
Concentration (pmol/1 × 10^6 cells) (RAW cells; [2]): 6.37 pmol/1 × 10^6 cells
Concentration (ng/1 × 10^6 cells) (RAW cells; [3]): 5.13 ng/1 × 10^6 cells
Concentration (pmol/1 × 10^6 cells) (RAW cells; [3]): 8.74 pmol/1 × 10^6 cells
Concentration (ng/1 × 10^6 cells) (RAW cells; [4]): 26.77 ng/1 × 10^6 cells
Concentration (pmol/1 × 10^6 cells) (RAW cells; [4]): 45.61 pmol/1 × 10^6 cells
Concentration (ng/1 × 10^6 cells) (RAW cells; [5]): 41.78 ng/1 × 10^6 cells
Concentration (pmol/1 × 10^6 cells) (RAW cells; [5]): 71.18 pmol/1 × 10^6 cells
(Compound 1-TP)/(Compound 1) (ng) (RAW cells; 0.5 μM Compound 1, 48 hours): 21.8
(Compound 1-TP)/(Compound 1) (ng) (RAW cells; 1 μM Compound 1, 48 hours): 39.4
(Compound 1-TP)/(Compound 1) (ng) (RAW cells; 5 μM Compound 1, 48 hours): 41.3
(Compound 1-TP)/(Compound 1) (ng) (RAW cells; 10 μM Compound 1, 48 hours): 41.1
(Compound 1-TP)/(Compound 1) (pmol) (RAW cells; 0.5 μM Compound 1, 48 hours): 12.0
(Compound 1-TP)/(Compound 1) (pmol) (RAW cells; 1 μM Compound 1, 48 hours): 21.7
(Compound 1-TP)/(Compound 1) (pmol) (RAW cells; 5 μM Compound 1, 48 hours): 22.7
(Compound 1-TP)/(Compound 1) (pmol) (RAW cells; 10 μM Compound 1, 48 hours): 22.6

CCCCCCCCCCCCCCCCOCCCOP(=O)(N[C@@H](C)C(=O)OC(C)C)OC[C@H]1O[C@@H](n2cc(C(N)=O)c3c(N)nc(C)nc32)[C@H](O)[C@@H]1O (stereo partly shown) [Compound 140]
EC50 (mouse norovirus; [6]): > 100 µM

Cc1nc(N)c2c(C(N)=O)cn([C@@H]3O[C@H](COP(=O)(O)N[C@@H](C)C(=O)OC(C)C)[C@@H](O)[C@H]3O)c2n1 [Compound 141]
EC50 (mouse norovirus; murine norovirus, Table 7): 3.2 µM

CCCCCCCCCCCCCCCOCCCOC(=O)C(C)NP(=O)(OCc1ccccc1C)OC[C@H]1O[C@@H](n2cc(C(N)=O)c3c(N)nc(C)nc32)[C@H](O)[C@@H]1O (stereo partly shown) [Compound 142]
EC50 (mouse norovirus; [6]): > 100 µM

CCCCCCCCCCCCCCCCOCCCOC(=O)[C@H](C)NP(=O)(O)OC[C@H]1O[C@@H](n2cc(C(N)=O)c3c(N)nc(C)nc32)[C@H](O)[C@@H]1O [Compound 143]
EC50 (mouse norovirus; murine norovirus, Table 7): 26.3 µM

C=Cc1c(C(N)=O)c2c(N)nc(C)nc2n1[C@@H]1O[C@H](CO)[C@@H](O)[C@H]1O [Compound 144]
EC50 (mouse norovirus; [6]): > 100 µM

CCCCCCCCC(=O)Oc1ccc(COP(=O)(OCc2ccc(OC(=O)CCCCCCCC)cc2)OP(=O)(O)OC[C@H]2O[C@@H](n3cc(C(N)=O)c4c(N)nc(C)nc43)[C@H](O)[C@@H]2O)cc1 [Compound 145]
EC50 (mouse norovirus; murine norovirus, Table 7): 7.4 µM

Reference: US9708359B2, “Pyrrolopyrimidine nucleosides and analogs thereof” (Chimerix, Inc., priority 2015, dated 2017)
